US20260250257A1, “ANTIBACTERIAL AND SYNERGISTIC ACTIVE COMPOUND AND USE THEREOF” (EAST CHINA UNIVERSITY OF SCIENCE AND TECHNOLOGY, priority 2023, published 2026)
Values after ≈ are worked out from the molar mass of the structure shown.

How the values were obtained:
Assay type in all cases: cell-based
[1] = system: ATCC9027 strain (Pseudomonas aeruginosa); experiment: Broth microdilution, antibacterial activity of the compound used alone; conditions: for MIC: read-out: Antibacterial activity of the compound of Formula I, ATCC9027
Excerpt: (§1) The broth microdilution method was used to test the antibacterial effects of the compounds of the present invention against various Gram-negative bacterial strains when used alone.

[2] = system: ATCC13883 strain (Klebsiella pneumoniae); experiment: as above; conditions: for MIC: read-out: Antibacterial activity of the compound of Formula I, ATCC13883
Excerpt: as §1

[3] = system: ATCC19606 strain (Acinetobacter baumannii); experiment: as above; conditions: for MIC: read-out: Antibacterial activity of the compound of Formula I, ATCC19606
Excerpt: as §1

[4] = system: ATCC25922 strain (Escherichia coli); experiment: as above; conditions: for MIC: read-out: Antibacterial activity of the compound of Formula I, ATCC25922
Excerpt: as §1

[5] = system: ATCC9027 strain (Pseudomonas aeruginosa); experiment: Checkerboard antibacterial synergistic activity test with polymyxin E (FIC); parameters: key: FIC≤0.5 synergy; 0.5–1 additive; 1–2 indifferent; ≥2 antagonism; conditions: combined with polymyxin E
Experimental: (§2) Polymyxin E was diluted in sterile MH broth medium to concentrations of 16, 8, 4, 2, 1, 0.5, 0.25, 0.125, 0.0625, 0.031, and 0.015 μg/ml, and the drug to be tested was diluted to concentrations of 256, 128, 64, 32, 16, 8, and 4 μg/ml. According to the checkerboard method, combinations of the drug to be tested and polymyxin at different concentrations in ascending order were placed into a 96-well plate, and corresponding blank control groups were set up. 50 μl of the drug solution was added to each well, then 100 μl of bacterial liquid was added, and incubated in a 37° C. incubator for 16 hours. […] Calculation and judgment criteria:
(§3) Fractional Inhibitory Concentration (FIC) is calculated as follows: […]
(§4) Judgment criteria: FIC≤0.5: synergistic effect; 0.5<FIC<1: additive effect; 1<FIC<2: indifferent effect; FIC≥2: antagonistic effect.
(§5) In the table: ATCC19606 strain is Acinetobacter baumannii, ATCC25922 strain is Escherichia coli, ATCC13883 strain is Klebsiella pneumoniae, ATCC9027 strain is Pseudomonas aeruginosa. All four strains were purchased from ATCC.

[6] = system: ATCC13883 strain (Klebsiella pneumoniae); experiment: as above; parameters: key: FIC≤0.5 synergy; 0.5–1 additive; 1–2 indifferent; ≥2 antagonism; conditions: combined with polymyxin E
Experimental: as §2, §3, §4, §5

[7] = system: ATCC19606 strain (Acinetobacter baumannii); experiment: as above; parameters: key: FIC≤0.5 synergy; 0.5–1 additive; 1–2 indifferent; ≥2 antagonism; conditions: combined with polymyxin E
Experimental: as §2, §3, §4, §5

[8] = system: ATCC25922 strain (Escherichia coli); experiment: as above; parameters: key: FIC≤0.5 synergy; 0.5–1 additive; 1–2 indifferent; ≥2 antagonism; conditions: combined with polymyxin E
Experimental: as §2, §3, §4, §5

| SMILES | MIC [1] | MIC [2] | MIC [3] | MIC [4] | Synergistic activity (FIC value) ATCC9027 [5] | Synergistic activity (FIC value) ATCC13883 [6] | Synergistic activity (FIC value) ATCC19606 [7] | Synergistic activity (FIC value) ATCC25922 [8] | Antibacterial activity of the compound of Formula I, ATCC9027 [1] | Antibacterial activity of the compound of Formula I, ATCC13883 [2] | Antibacterial activity of the compound of Formula I, ATCC19606 [3] | Antibacterial activity of the compound of Formula I, ATCC25922 [4] |
| --- | --- | --- | --- | --- | --- | --- | --- | --- | --- | --- | --- | --- |
| NC(N)=Nc1nc(-c2ccccc2Oc2ccccc2)cs1 [Compound I-1, 2-(4-(2-phenoxyphenyl)thiazol-2-yl)guanidine] | 256 µg/mL (≈ 825 µM) | 256 µg/mL (≈ 825 µM) | 256 µg/mL (≈ 825 µM) | 256 µg/mL (≈ 825 µM) | 0.52 | 0.53 | 1.25 | 1.25 |  |  |  |  |
| NC(N)=Nc1nc(-c2cccc(Oc3ccccc3)c2)cs1 [Compound I-2] | 256 µg/mL (≈ 825 µM) | 256 µg/mL (≈ 825 µM) | 256 µg/mL (≈ 825 µM) | 256 µg/mL (≈ 825 µM) | 0.53 | 0.75 | 0.26 | 0.51 |  |  |  |  |
| NC(N)=Nc1nc(-c2ccc(Oc3ccccc3)cc2)cs1 [Compound I-3] |  |  |  |  | 1.25 | 1.25 | 1.25 | 0.5 | 256 µg/mL | 256 µg/mL | 256 µg/mL | 256 µg/mL |
| COc1ccccc1-c1csc(N=C(N)N)n1 [Compound I-4] |  |  |  |  | 1.25 | 1.25 | 1.25 | 0.5 | 256 µg/mL | 256 µg/mL | 256 µg/mL | 256 µg/mL |
| COc1cccc(-c2csc(N=C(N)N)n2)c1 [Compound I-5] |  |  |  |  | 1.25 | 1.25 | 1.25 | 1.25 | 256 µg/mL | 256 µg/mL | 256 µg/mL | 256 µg/mL |
| COc1ccc(-c2csc(N=C(N)N)n2)cc1 [Compound I-6] |  |  |  |  | 1.25 | 1.25 | 0.75 | 0.5 | 256 µg/mL | 256 µg/mL | 256 µg/mL | 256 µg/mL |
| NC(N)=Nc1nc(-c2ccccc2OCc2ccccc2)cs1 [Compound I-7] |  |  |  |  | 0.75 | 0.51 | 0.16 | 0.51 | 256 µg/mL | 256 µg/mL | 256 µg/mL | 256 µg/mL |
| NC(N)=Nc1nc(-c2cccc(OCc3ccccc3)c2)cs1 [Compound I-8] | 128 µg/mL (≈ 395 µM) | 256 µg/mL (≈ 789 µM) | 256 µg/mL (≈ 789 µM) | 256 µg/mL (≈ 789 µM) | 0.53 | 0.53 | 0.25 | 1.25 |  |  |  |  |
| NC(N)=Nc1nc(-c2ccc(OCc3ccccc3)cc2)cs1 [Compound I-9] |  |  |  |  | 0.31 | 0.16 | 0.13 | 0.26 | 256 µg/mL | 256 µg/mL | 256 µg/mL | 256 µg/mL |
| CC(C)(C)c1ccccc1-c1coc(N=C(N)N)n1 [Compound I-10] |  |  |  |  | 1.25 | 1.25 | 1.25 | 0.5 | 256 µg/mL | 256 µg/mL | 256 µg/mL | 256 µg/mL |
| CC(C)(C)c1cccc(-c2c[se]c(N=C(N)N)n2)c1 [Compound I-11] |  |  |  |  | 0.63 | 0.25 | 0.3 | 0.5 | 256 µg/mL | 256 µg/mL | 256 µg/mL | 256 µg/mL |
| CC(C)(C)c1ccc(-c2c[nH]c(N=C(N)N)n2)cc1 [Compound I-12] |  |  |  |  | 0.63 | 0.25 | 0.28 | 0.5 | 256 µg/mL | 256 µg/mL | 256 µg/mL | 256 µg/mL |
| CC(C)(C)c1cc(-c2csc(N=C(N)N)n2)cc(C(C)(C)C)c1 [Compound I-13] |  |  |  |  | 0.62 | 0.33 | 0.15 | 0.39 | 256 µg/mL | 256 µg/mL | 256 µg/mL | 256 µg/mL |
| CC(C)c1ccccc1-c1coc(N=C(N)N)n1 [Compound I-15] |  |  |  |  | 1.25 | 1.25 | 1.25 | 0.5 | 256 µg/mL | 256 µg/mL | 256 µg/mL | 256 µg/mL |
| CC(C)c1cccc(-c2c[nH]c(N=C(N)N)n2)c1 [Compound I-16] |  |  |  |  | 0.63 | 0.25 | 0.3 | 0.5 | 256 µg/mL | 256 µg/mL | 256 µg/mL | 256 µg/mL |
